This assay deals with T1, vaccinia virus TOP1 (vaccinia DNA Topoisomerase I) (Vaccinia virus WR, UniProt P68698).
T1 construct: gene OPG111; TOP1 described as 314 amino acids; amine-coupled to GLH chip
Nature of the assay: biochemical. It counts as binding.
The term Kd denotes the free concentration of one partner at which half of the binding sites on the other are occupied at equilibrium, for simple one-to-one binding. Lower therefore signals a tighter complex. In turn, `C[C@@H]1O[C@@H](Oc2c(-c3cc(O)c(O)c(O)c3)oc3cc(O)cc(O)c3c2=O)[C@H](O)[C@H](O)[C@H]1O` [Myricitrin] gave a Kd of 3.54 µM.
`CC1COc2c(N3CCN(C)CC3)c(F)cc3c(=O)c(C(=O)O)cn1c23` (stereo not shown) [Ofloxacin] yielded a Kd of 5.46 µM.
In the case of `C[C@@H]1O[C@@H](Oc2c(-c3ccc(O)c(O)c3)oc3cc(O)cc(O)c3c2=O)[C@H](O)[C@H](O)[C@H]1O` [Quercitrin], the Kd worked out at 4.77 µM.
`O=C(/C=C/c1ccc(O)c(O)c1)O[C@H](Cc1ccc(O)c(O)c1)C(=O)O` [Rosmarinic acid] yielded a Kd of 2.16 µM.

For the origin of these results see PMC9919579 (Molecules, 2023).
